Values of other authors in patent US10040838B2, “CRHR2 peptide agonists and uses thereof” (JANSSEN PHARMACEUTICA NV, priority 2008, dated 2018).
No end group written: not given here.

Target: T1, h-CRHR1 (Homo sapiens, UniProt P34998)
T1 sequence (P34998 24-415): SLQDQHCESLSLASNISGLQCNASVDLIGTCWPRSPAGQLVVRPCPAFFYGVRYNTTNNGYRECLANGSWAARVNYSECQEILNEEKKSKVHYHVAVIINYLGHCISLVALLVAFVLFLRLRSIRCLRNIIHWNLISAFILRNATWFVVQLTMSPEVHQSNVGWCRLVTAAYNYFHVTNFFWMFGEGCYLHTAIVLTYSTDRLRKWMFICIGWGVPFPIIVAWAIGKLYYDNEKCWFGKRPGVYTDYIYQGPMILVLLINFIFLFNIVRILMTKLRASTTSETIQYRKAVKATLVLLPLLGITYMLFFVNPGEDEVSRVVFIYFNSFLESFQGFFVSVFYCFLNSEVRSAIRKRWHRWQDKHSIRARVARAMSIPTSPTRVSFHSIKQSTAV
Settings: h-CRHR1 transfected HEK-293 cells, approximated from concentration response curves, Hsu et al. 2001; cited from earlier work

HPGSRIVLSLDVPIGLLQILLEQARARAAREQATTNARILARV-NH2 [SEQ ID NO: 117, HPGSRIVLSLDVPIGLLQILLEQARAPAAREQATTNARILARV-NH2, reference compound]
Published pA50: >7^3
